This note sets out measurements from US10144706B2 (BRISTOL-MYERS SQUIBB COMPANY, priority 2016, dated 2018).

Molecules are shown by their SMILES. pIC50: −log10 of the molar value. Like-named read-outs stand apart in the source and are kept apart here.

What is called pIC50 is −log10 of the IC50, conventionally taken in molar units.

For the assay, the target named is T1, PD-1/PD-L1 interaction (PD-1-Ig / PD-L1-His) (Homo sapiens, UniProt Q9NZQ7).
T1 construct: hPDL1(18-239)-TVMV-His; TVMV protease site linker (C); made in house; host or cells: HEK293T
The experiment in a line: PD-1/PD-L1 Homogenous Time-Resolved Fluorescence (HTRF) binding assay. As to conditions: PD-L1-His 10 nM, PD-1-Ig 20 nM, read-out: Range or IC50. In a few lines: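 HTRF detection used 1 nM europium-cryptate anti-Ig and 20 nM APC anti-His. Compounds first saw 10 nM PD-L1-His for 15 min, and 20 nM PD-1-Ig was then added for another 15 min. Buffer was dPBS plus 0.1% BSA and 0.05% Tween-20. All concentrations are final.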
In general terms: Time-resolved FRET reads energy transfer from a long-lived donor to a nearby acceptor.

T1 sequence (Q9NZQ7 with tags, fused parts or gaps): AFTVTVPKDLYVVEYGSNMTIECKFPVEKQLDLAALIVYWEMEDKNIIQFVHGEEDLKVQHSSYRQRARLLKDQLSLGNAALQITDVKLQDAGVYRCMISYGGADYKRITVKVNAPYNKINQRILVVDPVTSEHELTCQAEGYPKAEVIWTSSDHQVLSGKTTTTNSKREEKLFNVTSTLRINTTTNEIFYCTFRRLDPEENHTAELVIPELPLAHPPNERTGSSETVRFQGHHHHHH

Regarding `Cc1cc(OCc2cccc(-c3cccc(COc4cc(C)c(CNC(CO)CO)cc4C)c3C)c2C)c(C)cc1CNC(CO)CO` [Example 5004, 2,2′-((((((2,2′-dimethyl-[1,1′-biphenyl]-3,3′-diyl)bis(methylene))bis(oxy))bis(2,5-dimethyl-4,1-phenylene))bis(methylene))bis(azanediyl))bis(propane-1,3-diol)], where the note is “IC50 range class”, the pIC50 was 7.70 to 10.40. As for `Cc1c(COc2cc(OCc3cc(F)cc(F)c3)c(CN(C)C(CO)CO)cc2Cl)cccc1-c1cccc(COc2cc(OCc3cc(F)cc(F)c3)c(CN(C)C(CO)CO)cc2Cl)c1C` [Example 5005, 2,2′-((((((2,2′-dimethyl-[1,1′-biphenyl]-3,3′-diyl)bis(methylene))bis(oxy))bis(5-chloro-2-((3,5-difluorobenzyl)oxy)-4,1-phenylene))bis(methylene))bis(methylazanediyl))bis(propane-1,3-diol)], the pIC50 (IC50 range class) is 6.00 to 7.05. `Cc1c(COc2cc(OCc3cc(F)cc(F)c3)c(CN3CCCC[C@H]3C(=O)O)cc2Cl)cccc1-c1cccc(COc2cc(OCc3cc(F)cc(F)c3)c(CN3CCCC[C@H]3C(=O)O)cc2Cl)c1C` [Example 5006, (2S,2′S)-1,1′-(((((2,2′-dimethyl-[1,1′-biphenyl]-3,3′-diyl)bis(methylene))bis(oxy))bis(5-chloro-2-((3,5-difluorobenzyl)oxy)-4,1-phenylene))bis(methylene))bis(piperidine-2-carboxylic acid)]: under “IC50 range class”, the pIC50 is 7.70 to 10.40.

Turning to `Cc1c(COc2cc(OCc3cc(F)cc(F)c3)c(CNC(C)(CO)CO)cc2Cl)cccc1-c1cccc(COc2cc(OCc3cc(F)cc(F)c3)c(CNC(C)(CO)CO)cc2Cl)c1C` [Example 5007, 2,2′-((((((2,2′-dimethyl-[1,1′-biphenyl]-3,3′-diyl)bis(methylene))bis(oxy))bis(5-chloro-2-((3,5-difluorobenzyl)oxy)-4,1-phenylene))bis(methylene))bis(azanediyl))bis(2-methylpropane-1,3-diol)], the pIC50 (IC50 range class) was 7.70 to 10.40. Turning to `Cc1c(COc2cc(OCc3cc(F)cc(F)c3)c(CN[C@@H](CO)C(=O)O)cc2Cl)cccc1-c1cccc(COc2cc(OCc3cc(F)cc(F)c3)c(CN[C@@H](CO)C(=O)O)cc2Cl)c1C` [Example 5008, (2S,2′S)-2,2′-((((((2,2′-dimethyl-[1,1′-biphenyl]-3,3′-diyl)bis(methylene))bis(oxy))bis(5-chloro-2-((3,5-difluorobenzyl)oxy)-4,1-phenylene))bis(methylene))bis(azanediyl))bis(3-hydroxypropanoic acid)], the pIC50 (IC50 range class) was 7.05 to 7.70.

For the compound `Cc1c(COc2cc(OCc3cc(F)cc(F)c3)c(CN[C@@](C)(CO)C(=O)O)cc2Cl)cccc1-c1cccc(COc2cc(OCc3cc(F)cc(F)c3)c(CN[C@@](C)(CO)C(=O)O)cc2Cl)c1C` [Example 5009, (2S,2′S)-2,2′-((((((2,2′-dimethyl-[1,1′-biphenyl]-3,3′-diyl)bis(methylene))bis(oxy))bis(5-chloro-2-((3,5-difluorobenzyl)oxy)-4,1-phenylene))bis(methylene))bis(azanediyl))bis(3-hydroxy-2-methylpropanoic acid)], under “IC50 range class”, the pIC50 is 7.70 to 10.40. In the case of `Cc1c(COc2cc(OCc3cc(F)cc(F)c3)c(CN(C)C(C)(CO)CO)cc2Cl)cccc1-c1cccc(COc2cc(OCc3cc(F)cc(F)c3)c(CN(C)C(C)(CO)CO)cc2Cl)c1C` [Example 5012, 2,2′-((((((2,2′-dimethyl-[1,1′-biphenyl]-3,3′-diyl)bis(methylene))bis(oxy))bis(5-chloro-2-((3,5-difluorobenzyl)oxy)-4,1-phenylene))bis(methylene))bis(methylazanediyl))bis(2-methylpropane-1,3-diol)], where the note is “IC50 range class”, the pIC50 is 7.05 to 7.70.

Take `Cc1c(COc2cc(OCc3cc(F)cc(F)c3)c(CN(C)[C@@H](CO)C(=O)O)cc2Cl)cccc1-c1cccc(COc2cc(OCc3cc(F)cc(F)c3)c(CN(C)[C@@H](CO)C(=O)O)cc2Cl)c1C` [Example 5013, (2S,2′S)-2,2′-((((((2,2′-dimethyl-[1,1′-biphenyl]-3,3′-diyl)bis(methylene))bis(oxy))bis(5-chloro-2-((3,5-difluorobenzyl)oxy)-4,1-phenylene))bis(methylene))bis(methylazanediyl))bis(3-hydroxypropanoic acid)]: the pIC50 (IC50 range class) is 7.05 to 7.70.

Turning to `Cc1c(COc2cc(OCc3cc(F)cc(F)c3)c(CN(C)[C@@](C)(CO)C(=O)O)cc2Cl)cccc1-c1cccc(COc2cc(OCc3cc(F)cc(F)c3)c(CN(C)[C@@](C)(CO)C(=O)O)cc2Cl)c1C` [Example 5014, (2S,2′S)-2,2′-((((((2,2′-dimethyl-[1,1′-biphenyl]-3,3′-diyl)bis(methylene))bis(oxy))bis(5-chloro-2-((3,5-difluorobenzyl)oxy)-4,1-phenylene))bis(methylene))bis(methylazanediyl))bis(3-hydroxy-2-methylpropanoic acid)], the pIC50 (IC50 range class) is 7.05 to 7.70. Same read-out and setting: in the case of `Cc1c(COc2cc(OCc3cc(F)cc(F)c3)c(CN(C)[C@H](C(=O)O)C(C)C)cc2Cl)cccc1-c1cccc(COc2cc(OCc3cc(F)cc(F)c3)c(CN(C)[C@H](C(=O)O)C(C)C)cc2Cl)c1C` [Example 5015, (2S,2′S)-2,2′-((((((2,2′-dimethyl-[1,1′-biphenyl]-3,3′-diyl)bis(methylene))bis(oxy))bis(5-chloro-2-((3,5-difluorobenzyl)oxy)-4,1-phenylene))bis(methylene))bis(methylazanediyl))bis(3-methylbutanoic acid)] it was 7.05 to 7.70. With `CCC[C@@H](C(=O)O)N(C)Cc1cc(Cl)c(OCc2cccc(-c3cccc(COc4cc(OCc5cc(F)cc(F)c5)c(CN(C)[C@@H](CCC)C(=O)O)cc4Cl)c3C)c2C)cc1OCc1cc(F)cc(F)c1` [Example 5016, (2S,2′S)-2,2′-((((((2,2′-dimethyl-[1,1′-biphenyl]-3,3′-diyl)bis(methylene))bis(oxy))bis(5-chloro-2-((3,5-difluorobenzyl)oxy)-4,1-phenylene))bis(methylene))bis(methylazanediyl))dipentanoic acid], the pIC50 (numeric IC50) was 7.51.

With `Cc1c(COc2cc(OCc3cc(F)cc(F)c3)c(CN(C)[C@@H](CC(C)C)C(=O)O)cc2Cl)cccc1-c1cccc(COc2cc(OCc3cc(F)cc(F)c3)c(CN(C)[C@@H](CC(C)C)C(=O)O)cc2Cl)c1C` [Example 5017, (2S,2′S)-2,2′-((((((2,2′-dimethyl-[1,1′-biphenyl]-3,3′-diyl)bis(methylene))bis(oxy))bis(5-chloro-2-((3,5-difluorobenzyl)oxy)-4,1-phenylene))bis(methylene))bis(methylazanediyl))bis(4-methylpentanoic acid)], the pIC50 (IC50 range class) was 7.70 to 10.40. Same read-out and setting: in the case of `Cc1c(COc2cc(OCc3ccc(-n4cccn4)nc3)c(CN[C@H](C(=O)O)[C@@H](C)O)cc2Cl)cccc1-c1cccc(COc2cc(OCc3ccc(-n4cccn4)nc3)c(CN[C@H](C(=O)O)[C@@H](C)O)cc2Cl)c1C` [Example 5018, (2S,2′S,3R,3′R)-2,2′-((((((2,2′-dimethyl-[1,1′-biphenyl]-3,3′-diyl)bis(methylene))bis(oxy))bis(2-((6-(1H-pyrazol-1-yl)pyridin-3-yl)methoxy)-5-chloro-4,1-phenylene))bis(methylene))bis(azanediyl))bis(3-hydroxybutanoic acid)] it was 7.70 to 10.40.
